Reference: PMC3779154, “Identification of Therapeutic Candidates for Chronic Lymphocytic Leukemia from a Library of Approved Drugs” (PLoS ONE, 2013)
Like-named read-outs stand apart in the source and are kept apart here.

Key:
[1] = system: human thioredoxin reductase; parameters: method as in PMID 19665452; conditions: NADPH-reduced form; cited from earlier work
[2] = system: lymphocytes from normal donors; conditions: for potency shift between CLL and normal donor samples: fresh cells, normal IC50 vs CLL IC50
Method: (§3) Cell viability was measured using a luciferase-based ATP quantitation assay (CellTiter-Glo^TM, Promega). The intracellular ATP content indicates the number of viable (i.e. metabolically competent) cells after compound treatment. Four µL of CLL cells resuspended in AIM medium at 1,330,000 cells/ml, were dispensed into each well of white, solid bottom, 1536-well tissue culture–treated plates using a Multidrop-Combi dispenser and incubated overnight. After that, a total of 23 nL of compounds at 8 selected concentrations from the NPC library or positive control (10 mM stock of doxorubicin hydrochloride) in DMSO was transferred to each well of the assay plate using a pintool (Kalypsys, San Diego, CA), and the plates were further incubated at 37 °C with 5% CO2 for 24 hours to allow the reaction. Then 4µL of CellTilter-Glo luminescent substrate mix was added to each well. The plate was incubated at room temperature for 15 minutes. The plates were measured on a ViewLux plate reader (PerkinElmer) with clear filter.
(§4) These compounds were then re-tested in the cell viability assay using 12 point titrations with concentration ranging from 57 µM to 0.3 nM with 1:3 dilution.
(§5) Fresh primary cells were also obtained from two unaffected normal donors and seven CLL patients whose blood samples were collected within hours of apheresis and which had not been included in our previous experiments.

caspase-3/7 = experiment: Caspase-Glo 3/7 activation assay in CLL samples; format: cell-based, human; conditions: CLL samples, 24 hours, read-out: EC50 caspase-3/7 activity
Method: The effect of selected compounds on caspase activity was measured using a homogeneous luminescent method (Caspase-Glo® 3/7, 8 and 9 kits, Promega, Madison, WI). Briefly in this assay, caspase induced by cells cleaves a pro-luciferin substrate where a tetrapeptide caspase substrate - DEVD (asp-glu-val-asp) is cleaved to free aminoluciferin, which can be used as a substrate by luciferase yielding a bioluminescent signal. The luminescent signal is proportional to the amount of caspase activity present in the cells. Cells were dispensed in culture medium at 5,000/cells/5uL/well in 1536-well white/solid-bottom assay plates. The cells were incubated for overnight at 37°C. The compounds (23nL/well) were added via the pin tool. The treated cells were further incubated for 24 h at 37°C, followed by the addition of the Caspase-Glo 3/7, 8 or 9 reagents at 5uL/well. After a 30 min incubation at room temperature, the luminescence intensity of the assay plates was measured using a ViewLux Plate Reader. The caspase activity was normalized to DMSO control.

[3] = system: lymphocytes from normal donors; experiment: qHTS luminescent ATP cell viability assay, primary screen, normal donor lymphocytes; conditions: differential efficacy or IC50 shift >5-fold
From the text: (§1) Lymphocytes from 13 CLL treatment naïve patients (Table 1 ) and 5 normal donors were obtained by lymphapheresis with written informed consent and isolated by gradient centrifugation using Lymphocyte Separation Medium (MP Biomedicals, Solon, OH) and used fresh or cryopreserved in liquid nitrogen in 10% dimethyl sulfoxide, 90% FCS. CLL patients were consented on the institutional review board (IRB) approved at the National Heart, Lung, and Blood Institute (NHLBI, Office of Clinical Affairs, Bldg 10, CRC. Room 6-5140, Bethesda, Maryland 20892-1608) with protocol 04-H-0012 and samples from normal donors were collected by the Department of Transfusion Medicine, National Institutes of Health (NIH). This study was approved by the IRB mentioned above. Fresh cells were temporally placed on ice and plated for screening within 3 hrs of apheresis. Frozen cells were thawed the night before the assay and incubated in T175 flask in AIM V medium to recover overnight. Analysis of IGHV gene status was performed as described. CLL samples were cultured in AIM V serum free medium (Gibco-Invitrogen, Long Island, NY).
(§2) Compound formatting and qHTS were performed as described previously. The final concentration of the NPC compounds in the 4 µL assay volume ranged from 57 µM to 0.7 nM in 1:5 dilution steps. The positive control plate format was as follows: columns 1 and 3, DMSO only; column 2, doxorubicin, a known cytotoxic chemotherapy agent in a 1:2 dilution series from 10 µM to 5 nM in DMSO; and column 4, doxorubicin at 10 µM in DMSO.
To determine compound activity in the qHTS assay, the concentration-response data for each sample was plotted and modeled by a four parameter logistic fit yielding IC50 and efficacy (maximal response) values as previously described. […] Briefly, raw plate reads for each titration point were first normalized relative to the positive control compound (100%) and DMSO-only wells (basal, 0%), and then corrected by applying a pattern correction algorithm using compound-free control plates (i.e., DMSO-only plates) at the beginning and end of the NPC compound plate stack. […]

[4] = system: fresh CLL patient lymphocytes; conditions: read-out: IC50 CLL, average of cells from 7 CLL patients, fresh, Figure 5
Method: (§6) Cell viability was measured using a luciferase-based ATP quantitation assay (CellTiter-Glo^TM, Promega). The intracellular ATP content indicates the number of viable (i.e. metabolically competent) cells after compound treatment. […] After that, a total of 23 nL of compounds at 8 selected concentrations from the NPC library or positive control (10 mM stock of doxorubicin hydrochloride) in DMSO was transferred to each well of the assay plate using a pintool (Kalypsys, San Diego, CA), and the plates were further incubated at 37 °C with 5% CO2 for 24 hours to allow the reaction. Then 4µL of CellTilter-Glo luminescent substrate mix was added to each well. The plate was incubated at room temperature for 15 minutes. The plates were measured on a ViewLux plate reader (PerkinElmer) with clear filter. […] The test volume of 5,000 cells/4 μL/well was selected as the final assay condition in cell density tests based on the assay performance statistics: signal/background ratio, coefficient of variation and Z’-factor (data not shown).
as §5

[5] = system: lymphocytic leukemia P388; parameters: method as in PMID 6778607; conditions: cited from earlier work
[6] = system: fresh CLL patient lymphocytes; experiment: cells; conditions: Homo sapiens, Lymphocyte
Method: as §6, §5

[7] = system: lymphocytes from normal donors; experiment: cells; conditions: Homo sapiens, Lymphocyte, read-out: IC50 normal
Method: as §3, §4, §5

CLL = system: CLL; parameters: method as in PMID 20603650; conditions: oral, single-agent, treated CLL patients; cited from earlier work
primary CLL cells = experiment: qHTS luminescent ATP cell viability assay (CellTiter-Glo), primary screen, frozen CLL patient cells; format: cell-based, human; conditions: CLL cells, 24 h, Figure 1
From the text: as §1, §2
To determine compound activity in the qHTS assay, the concentration-response data for each sample was plotted and modeled by a four parameter logistic fit yielding IC50 and efficacy (maximal response) values as previously described. Data normalization and curve fitting were performed using in-house informatics tools. Briefly, raw plate reads for each titration point were first normalized relative to the positive control compound (100%) and DMSO-only wells (basal, 0%), and then corrected by applying a pattern correction algorithm using compound-free control plates (i.e., DMSO-only plates) at the beginning and end of the NPC compound plate stack. […] In brief, Class 1.1 and 1.2 were the highest-confidence complete CRCs containing upper and lower asymptotes with efficacies ≥ 80% and < 80%, respectively. Class 2.1 and 2.2 were incomplete CRCs having only one asymptote with efficacy ≥ 80% and < 80%, respectively.
Compounds from the primary qHTS screen were further classified into three categories according to the quality of curve fit and efficacy.

[8] = system: normal and solid tumor cell lines
[9] = system: ME-180 human cervical carcinoma cell line; experiment: Cell viability assay, ME-180 cells (NPC library profiling)
From the text: Based on the definition of actives, inactives and inconclusive mentioned above, compounds were further clustered hierarchically using Spotfire DecisionSite 8.2 (Spotfire Inc., Cambridge, MA) based on their activity outcomes from the primary screen across a wide variety of cell viability assays against different cell lines or primary patient cells. Each compound was converted into an integer which represents its activity outcome in each cell viability assay. […] Integer 2 represents compounds in “inconclusive” category which is corresponding to light red in the heat map. […] Compounds not tested in the assay were labeled as 4 and shown as grey in the heat map.

OC[C@H]1O[C@H]([S-])[C@H](O)[C@@H](O)[C@@H]1O.[Au+] [aurothioglucose]
inhibition of human thioredoxin reductase [1]: strongly inhibit

CC(=O)OC[C@H]1O[C@@H]([S-])[C@H](OC(C)=O)[C@@H](OC(C)=O)[C@@H]1OC(C)=O.CCP(CC)CC.[Au+] [auranofin]
potency shift between CLL and normal donor samples [2]: 30 fold | potency shift between CLL and normal donor samples ([2]; listed as Auranofin): greater than 30 fold | IC50 ([2]; read-out: IC50 normal, average of 2 normal donors, fresh, Figure 5): 2.05 µM | inhibition of human thioredoxin reductase [1]: strongly inhibit | EC50 (caspase-3/7): < 0.1 µM | differential cytotoxicity between CLL cells and lymphocytes from normal donors [3]: differential cytotoxicity | IC50 [4]: < 1 µM | IC50 ([4]; listed as Auranofin): 0.07 µM | life span of mice inoculated with lymphocytic leukemia P388 [5]: effective in increasing the life span

Nc1ncn([C@@H]2O[C@H](CO)[C@@H](O)[C@H]2O)c(=O)n1 [azacitidine]
difference in efficacy between CLL and unaffected donor samples ([2]; at 19 µM and 57 µM, the two highest testing concentrations): over 40% | potency shift between CLL and normal donor samples [2]: about 3 fold | decreased efficacy to normal B cells ([2]; versus CLL cells): over 40% | EC50 (caspase-3/7; Homo sapiens): 5.1 µM | differential cytotoxicity between CLL cells and lymphocytes from normal donors [3]: differential cytotoxicity | IC50 ([6]; read-out: IC50 CLL, average of cells from 7 CLL patients, fresh, Figure 5): 8.1 µM | IC50 [7]: 15.9 µM

OCC(S)CS (centres unmarked) [dimercaprol]
potency shift between CLL and normal donor samples [2]: 50 fold | EC50 (caspase-3/7; Homo sapiens): < 0.1 µM | differential cytotoxicity between CLL cells and lymphocytes from normal donors [3]: differential cytotoxicity | IC50 [4]: < 1 µM | IC50 ([4]; listed as Dimercaprol): 0.38 µM | IC50 [7]: 19.4 µM

O=C(O)CCCc1ccc(N(CCCl)CCCl)cc1 [chlorambucil]
frequency of complete responses (CLL): less than 5% | IC50 ([6]; 24 h): 12 to 30 µM | concentration-response curve class (primary CLL cells): 3

tyrothricin
activity in cytotoxicity profiling assays [8]: pan-active | potency variation across cytotoxicity profiling assays [8]: < 5 fold | cytotoxicity in ME-180 cells [9]: prominent cytotoxicity
